# Experimental data from US12214092B2, “Systems and methods for treating biological fluids” (Cerus Corporation, priority 2017, dated 2025).
# Where two headings read alike, the source gives them in different places.
# Legend:
# E. coli = test: Amotosalen and UV light (265-385 nm LEDs) treatment of E. coli in plasma, six-well plates, colony forming unit assay; type: cell-based; conditions: for Log reduction from S-59 / Log reduction total: ~3 J/cm^2, plasma
# Excerpt: This system comprised single arrays facing (e.g., opposing) a platform positioned for the illumination of biological fluids placed on the platform (see e.g., FIG. 5). System controls provided for adjustment of the LEDs during treatment of the biological fluid samples, controlling both the timing and intensity of illumination by the LEDs to achieve a desired light UV light dose. Evaluation of photochemical conversion, photoproduct formation, pathogen inactivation, and plasma and/or platelet quality parameters are performed for each light source wavelength as described previously. In one study using the device, photochemical inactivation of various bacteria were tested for each of the above-referenced LEDs together with amotosalen. The bacteria included E. coli (Gram negative), S. epidermidis (Gram positive), and P. acnes (anaerobe). As there are known germicidal effects of ultraviolet light with wavelengths in the UVC and UVB range, the study was controlled to determine for each LED wavelength the total inactivation levels, as well as inactivation levels specifically resulting from the UV light (without added amotosalen) or the photochemical treatment process itself.
# [1] = Residual post-illumination amotosalen by LED wavelength in bacteria-spiked plasma, HPLC; conditions: for Pre-UV S-59: pre-illumination
# [2] = S-59 photoconversion and photoproducts in platelets in 65% PAS III/35% plasma, 150 μM S-59, HPLC; conditions: for % Residual S-59: 3x (~10.8 J/cm^2)
# Protocol: Platelets collected in PAS/Plasma (65% PAS III/35% Plasma) were pooled and split into three 285 mL units for the study. Amotosalen (S-59) was added to a concentration of 150 μM, and the units were illuminated one time (˜3.6 J/cm^2 total dose), two times (˜7.2 J/cm^2 total dose), or three times (˜10.8 J/cm^2 total dose) with the narrow band 340 nm LEDs or 365 nm LEDs using the device of Example 1, or with the INT-100 device. Efficiency of S-59 photoconversion, as well as photoproducts formation, was assessed post-UVA illumination by HPLC as in previous Examples.
# HPLC analysis of post-illumination samples was used to determine area counts and relative levels for photoproducts generated from the various treatment conditions.
# [3] = Residual amotosalen in whole-blood derived plasma, 50 μM, ~6.4 J/cm^2, HPLC; type: physicochemical
# Excerpt: This pool and split format was repeated four times to generate four replicates.
compound,measurement,setting,value
"Cc1oc2c(C)c3oc(=O)cc(C)c3cc2c1COCCN [S-59, 3-(2-aminoethoxymethyl)-2,5,9-trimethylfuro[3,2-g]chromen-7-one]",ATP,platelets; 340 nm,4.0 mmol/×10^8
same,Lysis,platelets; 340 nm,2.36%
same,pH (37° C.),platelets; 340 nm,6.61
same,ATP,platelets; 365 nm,4.8 mmol/×10^8
same,Lysis,platelets; 365 nm,1.72%
same,pH (37° C.),platelets; 365 nm,6.74
same,ATP,platelets; INT 100,4.1 mmol/×10^8
same,Lysis,platelets; INT 100,2.25%
same,pH (37° C.),platelets; INT 100,6.60
same,Log reduction from S-59,"E. coli; 15 μM amotosalen, 265 nm",0 log
same,Log reduction total,"E. coli; 15 μM amotosalen, 265 nm",4.52 log
same,Log reduction from S-59,"E. coli; 15 μM amotosalen, 280 nm",0 log
same,Log reduction total,"E. coli; 15 μM amotosalen, 280 nm",4.52 log
same,Log reduction from S-59,"E. coli; 15 μM amotosalen, 310 nm",1.15 log
same,Log reduction total,"E. coli; 15 μM amotosalen, 310 nm",4.52 log
same,Log reduction from S-59,"E. coli; 15 μM amotosalen, 325 nm",3.81 log
same,Log reduction total,"E. coli; 15 μM amotosalen, 325 nm",4.52 log
same,Log reduction from S-59,"E. coli; 15 μM amotosalen, 340 nm",2.94 log
same,Log reduction total,"E. coli; 15 μM amotosalen, 340 nm",4.52 log
same,Log reduction from S-59,"E. coli; 15 μM amotosalen, 365 nm",2.76 log
same,Log reduction total,"E. coli; 15 μM amotosalen, 365 nm",4.52 log
same,Log reduction from S-59,"E. coli; 15 μM amotosalen, 385 nm",0.49 log
same,Log reduction total,"E. coli; 15 μM amotosalen, 385 nm",1.5 log
same,Log reduction from S-59,"E. coli; 150 μM amotosalen, 265 nm",0.54 log
same,Log reduction total,"E. coli; 150 μM amotosalen, 265 nm",5.01 log
same,Log reduction from S-59,"E. coli; 150 μM amotosalen, 280 nm",0.59 log
same,Log reduction total,"E. coli; 150 μM amotosalen, 280 nm",5.38 log
same,Log reduction from S-59,"E. coli; 150 μM amotosalen, 310 nm",2.29 log
same,Log reduction total,"E. coli; 150 μM amotosalen, 310 nm",6.23 log
same,Log reduction from S-59,"E. coli; 150 μM amotosalen, 325 nm",5.36 log
same,Log reduction total,"E. coli; 150 μM amotosalen, 325 nm",5.70 log
same,Log reduction from S-59,"E. coli; 150 μM amotosalen, 340 nm",4.93 log
same,Log reduction total,"E. coli; 150 μM amotosalen, 340 nm",5.64 log
same,Log reduction from S-59,"E. coli; 150 μM amotosalen, 365 nm",4.90 log
same,Log reduction total,"E. coli; 150 μM amotosalen, 365 nm",5.30 log
same,Log reduction from S-59,"E. coli; 150 μM amotosalen, 385 nm",4.34 log
same,Log reduction total,"E. coli; 150 μM amotosalen, 385 nm",4.95 log
same,photochemical inactivation,"E. coli; summary for bacteria of Example 8, amotosalen+325 nm and amotosalen+340 nm illumination",greater than 4 logs
same,Pre-UV S-59,"[1]; E. coli plasma, 15 μM arm, 265 nm arm",16.0 µM
same,Post-UV S-59,"[1]; E. coli plasma, 15 μM arm, 265 nm, ~3 J/cm^2",12.7 µM
same,Pre-UV S-59,"[1]; E. coli plasma, 15 μM arm, 280 nm arm",16.2 µM
same,Post-UV S-59,"[1]; E. coli plasma, 15 μM arm, 280 nm, ~3 J/cm^2",12.6 µM
same,Pre-UV S-59,"[1]; E. coli plasma, 15 μM arm, 310 nm arm",15.4 µM
same,Post-UV S-59,"[1]; E. coli plasma, 15 μM arm, 310 nm, ~3 J/cm^2",5.5 µM
same,Pre-UV S-59,"[1]; E. coli plasma, 15 μM arm, 325 nm arm",15.8 µM
same,Post-UV S-59,"[1]; E. coli plasma, 15 μM arm, 325 nm, ~3 J/cm^2",4.0 µM
same,Pre-UV S-59,"[1]; E. coli plasma, 15 μM arm, 340 nm arm",16.0 µM
same,Post-UV S-59,"[1]; E. coli plasma, 15 μM arm, 340 nm, ~3 J/cm^2",3.7 µM
same,Pre-UV S-59,"[1]; E. coli plasma, 15 μM arm, 365 nm arm",16.2 µM
same,Post-UV S-59,"[1]; E. coli plasma, 15 μM arm, 365 nm, ~3 J/cm^2",8.1 µM
same,Pre-UV S-59,"[1]; E. coli plasma, 15 μM arm, 385 nm arm",15.3 µM
same,Post-UV S-59,"[1]; E. coli plasma, 15 μM arm, 385 nm, ~3 J/cm^2",14.3 µM
same,Pre-UV S-59,"[1]; E. coli plasma, 150 μM arm, 265 nm arm",148.9 µM
same,Post-UV S-59,"[1]; E. coli plasma, 150 μM arm, 265 nm, ~3 J/cm^2",115.0 µM
same,Pre-UV S-59,"[1]; E. coli plasma, 150 μM arm, 280 nm arm",152.7 µM
same,Post-UV S-59,"[1]; E. coli plasma, 150 μM arm, 280 nm, ~3 J/cm^2",148.1 µM
same,Pre-UV S-59,"[1]; E. coli plasma, 150 μM arm, 310 nm arm",151.1 µM
same,Post-UV S-59,"[1]; E. coli plasma, 150 μM arm, 310 nm, ~3 J/cm^2",56.8 µM
same,Pre-UV S-59,"[1]; E. coli plasma, 150 μM arm, 325 nm arm",141.6 µM
same,Post-UV S-59,"[1]; E. coli plasma, 150 μM arm, 325 nm, ~3 J/cm^2",52.1 µM
same,Pre-UV S-59,"[1]; E. coli plasma, 150 μM arm, 340 nm arm",142.2 µM
same,Post-UV S-59,"[1]; E. coli plasma, 150 μM arm, 340 nm, ~3 J/cm^2",48.1 µM
same,Pre-UV S-59,"[1]; E. coli plasma, 150 μM arm, 365 nm arm",153.2 µM
same,Post-UV S-59,"[1]; E. coli plasma, 150 μM arm, 365 nm, ~3 J/cm^2",79.8 µM
same,Pre-UV S-59,"[1]; E. coli plasma, 150 μM arm, 385 nm arm",148.4 µM
same,Post-UV S-59,"[1]; E. coli plasma, 150 μM arm, 385 nm, ~3 J/cm^2",135.1 µM
same,Pre-UV S-59,"[1]; P. acnes plasma, 15 μM arm, 265 nm arm",15.7 µM
same,Post-UV S-59,"[1]; P. acnes plasma, 15 μM arm, 265 nm, ~6.4 J/cm^2",10.8 µM
same,Pre-UV S-59,"[1]; P. acnes plasma, 15 μM arm, 280 nm arm",15.7 µM
same,Post-UV S-59,"[1]; P. acnes plasma, 15 μM arm, 280 nm, ~6.4 J/cm^2",16.0 µM
same,Pre-UV S-59,"[1]; P. acnes plasma, 15 μM arm, 310 nm arm",15.7 µM
same,Post-UV S-59,"[1]; P. acnes plasma, 15 μM arm, 310 nm, ~6.4 J/cm^2",2.2 µM
same,Pre-UV S-59,"[1]; P. acnes plasma, 15 μM arm, 325 nm arm",15.7 µM
same,Post-UV S-59,"[1]; P. acnes plasma, 15 μM arm, 325 nm, ~6.4 J/cm^2",1.1 µM
same,Pre-UV S-59,"[1]; P. acnes plasma, 15 μM arm, 340 nm arm",15.7 µM
same,Post-UV S-59,"[1]; P. acnes plasma, 15 μM arm, 340 nm, ~6.4 J/cm^2",1.4 µM
same,Pre-UV S-59,"[1]; P. acnes plasma, 15 μM arm, 365 nm arm",15.7 µM
same,Post-UV S-59,"[1]; P. acnes plasma, 15 μM arm, 365 nm, ~6.4 J/cm^2",5.5 µM
same,Pre-UV S-59,"[1]; P. acnes plasma, 15 μM arm, 385 nm arm",15.7 µM
same,Post-UV S-59,"[1]; P. acnes plasma, 15 μM arm, 385 nm, ~6.4 J/cm^2",13.7 µM
same,Pre-UV S-59,"[1]; S. epidermidis plasma, 15 μM arm, 265 nm arm",14.4 µM
same,Post-UV S-59,"[1]; S. epidermidis plasma, 15 μM arm, 265 nm, ~3 J/cm^2",13.0 µM
same,Pre-UV S-59,"[1]; S. epidermidis plasma, 15 μM arm, 280 nm arm",14.8 µM
same,Post-UV S-59,"[1]; S. epidermidis plasma, 15 μM arm, 280 nm, ~3 J/cm^2",11.8 µM
same,Pre-UV S-59,"[1]; S. epidermidis plasma, 15 μM arm, 310 nm arm",14.3 µM
same,Post-UV S-59,"[1]; S. epidermidis plasma, 15 μM arm, 310 nm, ~3 J/cm^2",5.2 µM
same,Pre-UV S-59,"[1]; S. epidermidis plasma, 15 μM arm, 325 nm arm",14.9 µM
same,Post-UV S-59,"[1]; S. epidermidis plasma, 15 μM arm, 325 nm, ~3 J/cm^2",3.7 µM
same,Pre-UV S-59,"[1]; S. epidermidis plasma, 15 μM arm, 340 nm arm",14.8 µM
same,Post-UV S-59,"[1]; S. epidermidis plasma, 15 μM arm, 340 nm, ~3 J/cm^2",3.6 µM
same,Pre-UV S-59,"[1]; S. epidermidis plasma, 15 μM arm, 365 nm arm",14.8 µM
same,Post-UV S-59,"[1]; S. epidermidis plasma, 15 μM arm, 365 nm, ~3 J/cm^2",7.8 µM
same,Pre-UV S-59,"[1]; S. epidermidis plasma, 15 μM arm, 385 nm arm",15.0 µM
same,Post-UV S-59,"[1]; S. epidermidis plasma, 15 μM arm, 385 nm, ~3 J/cm^2",15.1 µM
same,residual amotosalen,[1]; amotosalen+325 nm and amotosalen+340 nm illumination,less than 5 μM
same,S-59 concentration post-illumination,"[2]; 340 nm LED, ~3.6 J/cm^2",9 µM
same,S-59 concentration post-illumination,"[2]; 340 nm LED, ~7.2 J/cm^2",2 µM
same,S-59 concentration post-illumination,"[2]; 340 nm LED, ~10.8 J/cm^2, <LOQ",0.98 µM
same,HPLC area counts,"[2]; 340 nm, 0 J/cm^2",1826
same,% Residual S-59,[2]; 340 nm,0.5%
same,HPLC area counts,"[2]; 340 nm, 3.6 J/cm^2",106
same,HPLC area counts,"[2]; 340 nm, 7.2 J/cm^2",24
same,HPLC area counts,"[2]; 340 nm, 10.8 J/cm^2",11
same,S-59 concentration post-illumination,"[2]; 365 nm LED, ~3.6 J/cm^2",42 µM
same,S-59 concentration post-illumination,"[2]; 365 nm LED, ~7.2 J/cm^2",15 µM
same,S-59 concentration post-illumination,"[2]; 365 nm LED, ~10.8 J/cm^2",7 µM
same,HPLC area counts,"[2]; 365 nm, 0 J/cm^2",1753
same,% Residual S-59,[2]; 365 nm,4.9%
same,HPLC area counts,"[2]; 365 nm, 3.6 J/cm^2",514
same,HPLC area counts,"[2]; 365 nm, 7.2 J/cm^2",183
same,HPLC area counts,"[2]; 365 nm, 10.8 J/cm^2",84
same,HPLC area counts,"[2]; INT 100, 0 J/cm^2",1753
same,% Residual S-59,[2]; INT 100,3.1%
same,HPLC area counts,"[2]; INT 100, 3.6 J/cm^2",396
same,HPLC area counts,"[2]; INT 100, 7.2 J/cm^2",129
same,HPLC area counts,"[2]; INT 100, 10.8 J/cm^2",56
same,S-59 concentration post-illumination,"[2]; INT-100, ~3.6 J/cm^2",32 µM
same,S-59 concentration post-illumination,"[2]; INT-100, ~7.2 J/cm^2",11 µM
same,S-59 concentration post-illumination,"[2]; INT-100, ~10.8 J/cm^2",5 µM
same,residual amotosalen concentration,[3]; 340 nm device,4.65 µM
same,residual amotosalen concentration,[3]; INT-100 device,17.06 µM
